Data taken from ChEMBL document CHEMBL1201862, “PubChem BioAssay data set” (2004).
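Cultured in 96-well plates, cells were exposed to test compound for 48 hours across five concentrations. GI50 marks 50% less growth.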 Active and inactive are the calls of the source. No stated cut-off is given here; in the data, active = GI50 up to about 1.1 µM and inactive = higher.

What was measured:
Assay in all cases: NCI tumour cell line growth inhibition, 48 h
HCT-116 = tested on: HCT-116
M14 = tested on: M14
U-251 = tested on: U-251
DU-145 = tested on: DU-145
SF-268 = tested on: SF-268
SNB-19 = tested on: SNB-19
COLO 205 = tested on: COLO 205
SN12C = tested on: SN12C
NCI/ADR-RES = tested on: NCI/ADR-RES
MDA-N = tested on: MDA-N
TK-10 = tested on: TK-10
MCF7 = tested on: MCF7
SW-620 = tested on: SW-620
MOLT-4 = tested on: MOLT-4
ACHN = tested on: ACHN
CAKI-1 = tested on: CAKI-1
OVCAR-8 = tested on: OVCAR-8
HT-29 = tested on: HT-29
A549 = tested on: A549
HCC 2998 = tested on: HCC 2998
786-0 = tested on: 786-0
NCI-H460 = tested on: NCI-H460
RPMI-8226 = tested on: RPMI-8226
SF-295 = tested on: SF-295
SK-MEL-28 = tested on: SK-MEL-28
HL-60 = tested on: HL-60
CCRF-CEM = tested on: CCRF-CEM
T47D = tested on: T47D
SF-539 = tested on: SF-539
RXF 393 = tested on: RXF 393
EKVX = tested on: EKVX
IGROV-1 = tested on: IGROV-1
MDA-MB-231 = tested on: MDA-MB-231
K562 = tested on: K562
UACC-257 = tested on: UACC-257
BT-549 = tested on: BT-549
SR = tested on: SR
HCT-15 = tested on: HCT-15
SNB-75 = tested on: SNB-75
SK-MEL-5 = tested on: SK-MEL-5
Hs-578T = tested on: Hs-578T
MDA-MB-435 = tested on: MDA-MB-435
SK-OV-3 = tested on: SK-OV-3
HOP-62 = tested on: HOP-62
OVCAR-4 = tested on: OVCAR-4
KM12 = tested on: KM12
NCI-H522 = tested on: NCI-H522
NCI-H23 = tested on: NCI-H23
UACC-62 = tested on: UACC-62
UO-31 = tested on: UO-31
PC-3 = tested on: PC-3
OVCAR-3 = tested on: OVCAR-3
OVCAR-5 = tested on: OVCAR-5
LOX IMVI = tested on: LOX IMVI
HOP-92 = tested on: HOP-92
NCI-H226 = tested on: NCI-H226
Malme-3M = tested on: Malme-3M
SK-MEL-2 = tested on: SK-MEL-2
A498 = tested on: A498

With `O=[N+]([O-])c1ccc(Cl)cc1N/N=C/c1cccc2cccnc12` the GI50 (HCT-116) was 54 µM (inactive), the GI50 (M14) was > 100 µM (inactive) and the GI50 (U-251) was 79.1 µM (inactive). The GI50 (DU-145) was > 100 µM (inactive), the GI50 (SF-268) was > 100 µM (inactive) and the GI50 (SNB-19) was 31.3 µM (inactive). For the same molecule, the GI50 (COLO 205) was > 100 µM (inactive), the GI50 (SN12C) was > 100 µM (inactive) and the GI50 (NCI/ADR-RES) was > 100 µM (inactive). The GI50 (MDA-N) was > 100 µM (inactive), the GI50 (TK-10) was > 100 µM (inactive) and the GI50 (MCF7) was > 100 µM (inactive). For the same molecule, the GI50 (SW-620) was 96.6 µM (inactive), the GI50 (MOLT-4) was 39.7 µM (inactive) and the GI50 (ACHN) was > 100 µM (inactive). The GI50 (CAKI-1) was > 100 µM (inactive), the GI50 (OVCAR-8) was 48.2 µM (inactive) and the GI50 (HT-29) was > 100 µM (inactive). For the same molecule, the GI50 (A549) was > 100 µM (inactive), the GI50 (HCC 2998) was > 100 µM (inactive) and the GI50 (786-0) was > 100 µM (inactive). The GI50 (NCI-H460) was > 100 µM (inactive), the GI50 (RPMI-8226) was 20.3 µM (inactive) and the GI50 (SF-295) was > 100 µM (inactive). The GI50 (SK-MEL-28) was > 100 µM (inactive), the GI50 (HL-60) was > 100 µM (inactive) and the GI50 (CCRF-CEM) was 34.8 µM (inactive). For the same molecule, the GI50 (T47D) was > 100 µM (inactive), the GI50 (SF-539) was 95.1 µM (inactive) and the GI50 (RXF 393) was > 100 µM (inactive). For the same molecule, the GI50 (EKVX) was > 100 µM (inactive), the GI50 (IGROV-1) was > 100 µM (inactive) and the GI50 (MDA-MB-231) was > 100 µM (inactive). The GI50 (K562) was 89.9 µM (inactive), the GI50 (UACC-257) was > 100 µM (inactive) and the GI50 (BT-549) was > 100 µM (inactive). The GI50 (SR) was 15.3 µM (inactive), the GI50 (HCT-15) was > 100 µM and the GI50 (SNB-75) was 59.2 µM (inactive). For the same molecule, the GI50 (SK-MEL-5) was > 100 µM (inactive), the GI50 (Hs-578T) was 30.8 µM (inactive) and the GI50 (MDA-MB-435) was > 100 µM (inactive). The GI50 (SK-OV-3) was > 100 µM (inactive), the GI50 (HOP-62) was > 100 µM (inactive) and the GI50 (OVCAR-4) was 92.7 µM (inactive). For the same molecule, the GI50 (KM12) was > 100 µM (inactive), the GI50 (NCI-H522) was > 100 µM (inactive) and the GI50 (NCI-H23) was > 100 µM (inactive). For the same molecule, the GI50 (UACC-62) was > 100 µM (inactive), the GI50 (UO-31) was 33.1 µM (inactive) and the GI50 (PC-3) was > 100 µM (inactive). For the same molecule, the GI50 (OVCAR-3) was > 100 µM (inactive).

With `COc1ccc(/C=C2\CC3C4CC=C5C[C@@H](O)CC[C@]5(C)C4CC[C@]3(C)C2=O)cc1OC` (stereo not given in full) the GI50 (HCT-116) was 24 µM (inactive), the GI50 (M14) was 65 µM (inactive) and the GI50 (OVCAR-5) was 43.5 µM (inactive). The GI50 (U-251) was 26.2 µM (inactive), the GI50 (DU-145) was 27.5 µM (inactive) and the GI50 (SF-268) was 64.7 µM (inactive). The GI50 (SNB-19) was 62.4 µM (inactive), the GI50 (COLO 205) was 16.3 µM (inactive) and the GI50 (SN12C) was 23.1 µM (inactive). For the same molecule, the GI50 (NCI/ADR-RES) was 45 µM (inactive), the GI50 (MDA-N) was 42.2 µM (inactive) and the GI50 (TK-10) was 32.3 µM (inactive). The GI50 (MCF7) was 23.3 µM (inactive), the GI50 (SW-620) was 65.6 µM (inactive) and the GI50 (MOLT-4) was 20 µM (inactive). For the same molecule, the GI50 (ACHN) was 24.5 µM (inactive), the GI50 (CAKI-1) was 29.2 µM (inactive) and the GI50 (OVCAR-8) was 43.3 µM (inactive). For the same molecule, the GI50 (HT-29) was 31.8 µM (inactive), the GI50 (A549) was 27.9 µM (inactive) and the GI50 (HCC 2998) was 14.9 µM (inactive). The GI50 (786-0) was 40.3 µM (inactive), the GI50 (LOX IMVI) was 30.8 µM (inactive) and the GI50 (HOP-92) was 74.6 µM (inactive). For the same molecule, the GI50 (NCI-H460) was 17.3 µM (inactive), the GI50 (RPMI-8226) was 10.2 µM (inactive) and the GI50 (SF-295) was 11.4 µM (inactive). The GI50 (SK-MEL-28) was 81.1 µM (inactive), the GI50 (HL-60) was 13.1 µM (inactive) and the GI50 (NCI-H226) was 29.4 µM (inactive). For the same molecule, the GI50 (CCRF-CEM) was 20.7 µM (inactive), the GI50 (T47D) was 8.28 µM (inactive) and the GI50 (Malme-3M) was 27.2 µM (inactive). For the same molecule, the GI50 (SF-539) was 57.8 µM (inactive), the GI50 (RXF 393) was 34 µM (inactive) and the GI50 (EKVX) was 28.2 µM (inactive). For the same molecule, the GI50 (IGROV-1) was 75.3 µM (inactive), the GI50 (MDA-MB-231) was 25.8 µM (inactive) and the GI50 (K562) was 12.5 µM (inactive). The GI50 (UACC-257) was 13 µM (inactive), the GI50 (BT-549) was 44.6 µM (inactive) and the GI50 (HCT-15) was 34 µM. For the same molecule, the GI50 (SNB-75) was 16 µM (inactive), the GI50 (SK-MEL-5) was 7.05 µM (inactive) and the GI50 (Hs-578T) was 36.5 µM (inactive). The GI50 (MDA-MB-435) was 24.3 µM (inactive), the GI50 (SK-OV-3) was 41.6 µM (inactive) and the GI50 (SK-MEL-2) was 24.2 µM (inactive). The GI50 (HOP-62) was 44 µM (inactive), the GI50 (OVCAR-4) was 21.8 µM (inactive) and the GI50 (A498) was 28.6 µM (inactive). For the same molecule, the GI50 (KM12) was 32.8 µM (inactive), the GI50 (NCI-H522) was 17.2 µM (inactive) and the GI50 (NCI-H23) was 42.6 µM (inactive). For the same molecule, the GI50 (UACC-62) was 42.9 µM (inactive), the GI50 (UO-31) was 14.8 µM (inactive) and the GI50 (PC-3) was 25.9 µM (inactive). For the same molecule, the GI50 (OVCAR-3) was 5.09 µM (inactive).

In the case of `C=C1C(=O)O[C@H]2[C@H]3O[C@@H](C[C@@H]12)[C@](C)(O)CCCC(C)=CCC[C@H]3C`, the GI50 (HCT-116) is reported as 13.6 µM (inactive), the GI50 (OVCAR-5) is reported as 14.6 µM (inactive) and the GI50 (U-251) is reported as 14 µM (inactive). For the same molecule, the GI50 (DU-145) was 13.1 µM (inactive), the GI50 (SF-268) was 8.04 µM (inactive) and the GI50 (SNB-19) was 16.9 µM (inactive). The GI50 (COLO 205) was 3.38 µM (inactive), the GI50 (SN12C) was 11.9 µM (inactive) and the GI50 (NCI/ADR-RES) was 8.2 µM (inactive). The GI50 (MDA-N) was 16.1 µM (inactive), the GI50 (TK-10) was 3.24 µM (inactive) and the GI50 (MCF7) was 7.26 µM (inactive). For the same molecule, the GI50 (SW-620) was 5.13 µM (inactive), the GI50 (MOLT-4) was 2.08 µM (inactive) and the GI50 (ACHN) was 10.1 µM (inactive). For the same molecule, the GI50 (CAKI-1) was 10.8 µM (inactive), the GI50 (OVCAR-8) was 5.97 µM (inactive) and the GI50 (HT-29) was 13.5 µM (inactive). For the same molecule, the GI50 (A549) was 16.8 µM (inactive), the GI50 (HCC 2998) was 11.1 µM (inactive) and the GI50 (786-0) was 54.3 µM (inactive). The GI50 (LOX IMVI) was 14.3 µM (inactive), the GI50 (HOP-92) was 1.34 µM (inactive) and the GI50 (NCI-H460) was 5.18 µM (inactive). For the same molecule, the GI50 (RPMI-8226) was 3.17 µM (inactive), the GI50 (SF-295) was 16.5 µM (inactive) and the GI50 (SK-MEL-28) was 11.5 µM (inactive). For the same molecule, the GI50 (NCI-H226) was 18.1 µM (inactive), the GI50 (CCRF-CEM) was 0.807 µM (active) and the GI50 (T47D) was 19.1 µM (inactive). For the same molecule, the GI50 (SF-539) was 10.2 µM (inactive), the GI50 (RXF 393) was 4.91 µM (inactive) and the GI50 (EKVX) was 10.4 µM (inactive). The GI50 (IGROV-1) was 1.67 µM (inactive), the GI50 (MDA-MB-231) was 11.7 µM (inactive) and the GI50 (K562) was 6.37 µM (inactive). The GI50 (UACC-257) was 10.3 µM (inactive), the GI50 (BT-549) was 0.457 µM (active) and the GI50 (SR) was 28.1 µM (inactive). The GI50 (HCT-15) was 7.35 µM, the GI50 (SNB-75) was 10.5 µM (inactive) and the GI50 (SK-MEL-5) was 10.8 µM (inactive). For the same molecule, the GI50 (Hs-578T) was 3.9 µM (inactive), the GI50 (MDA-MB-435) was 3.86 µM (inactive) and the GI50 (SK-OV-3) was 19 µM (inactive). The GI50 (SK-MEL-2) was 15 µM (inactive), the GI50 (HOP-62) was 16.7 µM (inactive) and the GI50 (OVCAR-4) was 16.1 µM (inactive). The GI50 (KM12) was 14.1 µM (inactive), the GI50 (NCI-H522) was 4.36 µM (inactive) and the GI50 (NCI-H23) was 14.5 µM (inactive). For the same molecule, the GI50 (UACC-62) was 10.2 µM (inactive), the GI50 (UO-31) was 11.4 µM (inactive) and the GI50 (PC-3) was 12.2 µM (inactive). For the same molecule, the GI50 (OVCAR-3) was 13.9 µM (inactive).
